From PubChem BioAssay (NCI)
Values joined by “and” are separate entries in the source; they are usually repeats but may differ in a detail not shown here. Equal values may be shown once.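 Values below derive from 48-hour exposures of cells grown in 96-well plates, with endpoints linearly interpolated between the two concentrations bracketing the appropriate inhibition level. Here, GI50 denotes the concentration required for 50% inhibition of growth. Definition used: TGI = concentration required for complete inhibition of growth.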

Columns and labels:
Assay in all cases: NCI anticancer screen, dose series, 48 h
COLO 205 colon = test system: COLO 205 colon
HCT-116 colon = test system: HCT-116 colon
HCT-15 colon = test system: HCT-15 colon
HT29 colon = test system: HT29 colon
NCI-H226 lung = test system: NCI-H226 lung
SF-268 CNS = test system: SF-268 CNS
SK-MEL-5 melanoma = test system: SK-MEL-5 melanoma
SNB-75 CNS = test system: SNB-75 CNS
UACC-257 melanoma = test system: UACC-257 melanoma
DU-145 prostate = test system: DU-145 prostate
HS 578T breast = test system: HS 578T breast
MDA-MB-231 breast = test system: MDA-MB-231 breast

| Compound | TGI (COLO 205 colon) | TGI (HCT-116 colon) [µM] | TGI (HCT-15 colon) [µM] | TGI (HT29 colon) [µM] | TGI (NCI-H226 lung) [µM] | TGI (SF-268 CNS) [µM] | TGI (SK-MEL-5 melanoma) [µM] | TGI (SNB-75 CNS) [µM] | TGI (UACC-257 melanoma) [µM] | TGI (DU-145 prostate) [µM] | TGI (HS 578T breast) [µM] | TGI (MDA-MB-231 breast) [µM] | GI50 (COLO 205 colon) [µM] |
| --- | --- | --- | --- | --- | --- | --- | --- | --- | --- | --- | --- | --- | --- |
| CCCCCCCCCCCCCCCCSCC(COC)COP(=O)([O-])OCC[N+](C)(C)C (stereo not drawn) | 3.96 µM | 18.7 | 10.3 | 12.8 | 9.24 | 20.5 | 25.2 | 14.3 | 28.8 | – | – | – | – |
| Cc1ccnc2[nH]c(-c3cccc(Cl)c3)cc(=O)c12 | – | – | > 100 | > 100 | > 100 | > 100 | > 35.7 | – | > 100 | > 100 | > 100 | 0.0861 | – |
| O=C1/C(=C\c2cccc(Oc3ccccc3)c2)S(=O)(=O)C(c2ccccc2)N1c1ccccc1Cl (stereo not drawn) | 33.5 µM | 39.2 | > 100 | 70.3 | > 100 | – | 32 | 74.5 | > 100 | > 100 | – | > 100 | – |
| COc1cccc(-c2ccc3c4c2O[C@H]2c5[nH]c6ccccc6c5C[C@@]5(O)[C@@H](C3)N(CC3CC3)CC[C@]425)c1 | 4.15 µM | 2.99 | 3.7 | 3.19 | 30.2 | 3.37 | 3.85 | – | 3.2 | 6.91 | 3.33 | 3.44 | – |
| CN(C(=O)Cc1ccc(Cl)c(Cl)c1)[C@H]1CCCC[C@@H]1[N+]1(C)CCCC1 | > 100 µM | > 100 | > 100 | > 100 | > 100 | > 100 | > 100 | – | > 100 | > 100 | > 100 | > 100 | – |
| O=c1[nH]nc(-c2ccccc2)n1/N=C/c1ccncc1 | > 100 µM | > 100 | > 100 | > 100 | > 100 | > 100 | > 100 | > 100 | > 100 | > 100 | 97.3 | – | – |
| COC(=O)c1cc(NC(=O)c2cc(NC(=O)c3cc([N+](=O)[O-])cn3C)cn2C)cn1C | > 100 µM | > 100 | > 100 | > 100 | > 100 | > 100 | 91.9 | > 100 | – | > 100 | – | > 100 | – |
| Cc1c(C(=O)N2CCN(c3ccc([N+](=O)[O-])cc3)CC2)[n+](=O)c2cc(Cl)c(Cl)cc2n1[O-] | > 100 µM | 40.5 | 36.2 | 90.5 | – | 35.2 | 24.6 | – | > 100 | 43.9 | 93.6 | 46.7 | – |
| Cc1ccc(S(=O)(=O)/N=C(\NN)Nc2ccc(Cl)cc2)cc1 | > 100 µM | > 100 | > 100 | > 100 | > 100 | – | > 100 | > 100 | > 100 | > 100 | – | > 100 | – |
| CC(C)CCC[C@@H](C)[C@H]1CCC2C3CC=C4C[C@@H](Oc5c6ccccc6nc6ccccc56)CCC4C3CCC21 (stereo partly drawn) | > 50 µM | > 50 | > 50 | > 50 | > 50 | > 50 | > 50 | – | > 50 | > 50 | > 50 | > 50 | – |
| COc1ccc(O[C@H](COCc2ccccc2)C[C@@H]2COC(C)(C)O2)cc1 | > 100 µM | > 100 | > 100 | > 100 | > 100 | > 100 | > 100 | > 100 | > 100 | > 100 | – | > 100 | – |
| COC(=O)/C=C(\C)C(=O)N(C)c1ccccc1I | > 100 µM | > 100 | > 100 | – | > 100 | > 100 | > 100 | > 100 | > 100 | > 100 | – | > 100 | – |
| CCOC(=O)c1cc(C(=O)c2ccccc2)n2nc(-c3ccc(Cl)cc3)ccc12 | > 100 µM | > 100 | > 100 | 64.2 | 55.8 | 27.6 | 51.9 | – | 97.1 | 85.2 | 41.5 | > 100 | – |
| CCCCc1c(C(=O)OC(C)(C)C)cc(C#Cc2cc(C(=O)OC(C)(C)C)c(CCCC)c(C(=O)OC(C)(C)C)c2)cc1C(=O)OC(C)(C)C | > 100 µM | > 100 | > 100 | – | > 100 | > 100 | > 100 | > 100 | > 100 | > 100 | – | > 100 | – |
| CCC1C(c2cccc(OC)c2O)c2cc3c(cc2OC1N1CCCC1)OCO3 (stereo not drawn) | – | 21.2 | 40.3 | 37.5 | – | 58.9 | 22.8 | 92.4 | 71.3 | – | 29.9 | – | – |
| COC(=O)c1ccccc1C#CC#Cc1ccccc1C(=O)OC | 3.28 µM | > 10 | > 10 | > 10 | > 10 | > 10 | > 10 | – | > 10 | > 10 | > 10 | > 10 | – |
| COc1ccc(N2C(=Nc3ccccc3)SC(=N/S(=O)(=O)c3ccccc3)/C2=N\S(=O)(=O)c2ccccc2)cc1 | 41 µM | 28.2 | 31.8 | 48 | 56.8 | – | 31.9 | 55 | 73.1 | – | 55.7 | 43.5 | – |
| CC(C)C(C/C=C1\CC(CO)(COC(=O)c2ccccc2)OC1=O)C(C)C (stereo not drawn) | 25.4 µM | 31 | 41 | 38.2 | 39.8 | 35.5 | 29.7 | 29.1 | 70.6 | – | 33.4 | 44.2 | – |
| Cn1c(C(C#N)c2nc(Cl)ncc2Br)nc2ccccc21 (stereo not drawn) | > 100 µM | > 100 | > 100 | > 100 | > 100 | > 100 | > 100 | > 100 | > 100 | > 100 | – | > 100 | – |
| CCOC(=O)Oc1cc2c(c(OC)c1OC)-c1ccc(SC)c(=O)cc1C(NC(=O)C(F)(F)F)CC2 (stereo not drawn) | 0.523 µM and 1.03 µM | – | > 100 | – | 0.00301 | – | 0.00191 | > 100 | 37.9 | – | < 0.001 | – | 0.0447 |
